Source: patent US20050209201A1, “Method and composition for suppression of inflammation” (Shiseido Co., Ltd., priority 2004, published 2005)

Experiments:
[1] = test system: IL-6 release from keratinocytes; assay: ATP-induced IL-6 release from keratinocytes (ELISA); format: cell-based, human
Description: (§1) Commercially available keratinocytes (Kurabo) were cultured in KGM-2 medium (Kurabo) according to the manufacturer's manual. The cells were seeded in a 12-well plate at 1.5×10^5 cells/well.
(§2) The medium in the 12-well plate was discarded on the day after seeding of the cells, and 24 hours after adding 2 ml of test solution dissolved in fresh medium, the culture supernatants were collected. The IL-6, IL-8, IL-1α and TNF concentrations in the recovered supernatants were measured using a commercially available ELISA kit (R&D Systems, USA).
ATP (10 μM-1 mM) dissolved in the culture medium was applied as test solution to keratinocytes, and after 24 hours the culture supernatants were collected and the inflammatory cytokine IL-6 was assayed with the ELISA kit.

[2] = test system: TNFα release from keratinocytes; assay: ATP-induced TNFα release from keratinocytes (ELISA); format: cell-based, human
Description: as §1, §2
ATP (10 μM-1 mM) dissolved in the culture medium was applied as a test solution to keratinocytes, and after 24 hours the culture supernatants were recovered and the inflammatory cytokine TNFα was assayed with an ELISA kit.

[3] = test system: IL-8 gene expression in keratinocytes; assay: IL-8 gene expression in keratinocytes (Taqman RT-PCR); format: cell-based, human; conditions: Taqman-PCR normalized to GAPDH
Description: as §1
(§3) Keratinocytes were treated with the test solution and cells treated for 6 hours were used. Total RNA was extracted from the cells by addition of ISOGEN (Nippon Gene) according to the manufacturer's manual. cDNA was prepared with M-MLV reverse transcriptase (Life Technologies, Rockville USA), using 1 μg of RNA as template.
(§4) The gene sequence of the obtained cDNA was determined quantitatively by Taqman-PCR using an ABI PRISM 7700 Sequence Detector (Perkin Elmer) according to the manufacturer's manual, in the manner described in paragraph 11 of Japanese Unexamined Patent Publication (Kokai) No. 11-32799. The result was normalized on the basis of the expression level of human GAPDH (glyceraldehyde-3-phosphate dehydrogenase) used as an internal standard.

[4] = test system: IL-6 release in ultraviolet irradiated keratinocytes; assay: Release of cytokine IL-6 in ultraviolet irradiated keratinocytes (ELISA); format: cell-based, human
Description: as §1, §2
(§5) After discarding the medium, PBS(−) was added and UVB was irradiated at 30 or 60 mJ/cm^2. Following the irradiation, the PBS(−) was discarded, 2 ml of the medium or test solution dissolved in the medium was added, and the culture supernatants were collected after 24 hours.
Cells were exposed to ultraviolet irradiation. After 24 h, keratinocyte cell supernatants were collected and the content of IL-6 was assayed with an ELISA kit.

[5] = test system: IL-8 release in ultraviolet irradiated keratinocytes; assay: Release of cytokine IL-8 in ultraviolet irradiated keratinocytes (ELISA); format: cell-based, human
Description: as §1, §2, §5
Cells were exposed to ultraviolet irradiation. After 24 h, keratinocyte cell supernatants were collected and the content of IL-8 was assayed with an ELISA kit.

[6] = test system: IL-1α release from keratinocytes; assay: ATP-induced IL-1α release from keratinocytes (ELISA); format: cell-based, human
Description: as §1, §2
ATP (10 μM-1 mM) dissolved in the culture medium was applied as a test solution to keratinocytes, and after 24 hours the culture supernatants were collected and the inflammatory cytokine IL-1α was assayed with an ELISA kit.

[7] = test system: IL-8 release from keratinocytes; assay: ATP-induced IL-8 release from keratinocytes (ELISA); format: cell-based, human
Description: as §1, §2
ATP (10 μM-1 mM) dissolved in the culture medium was applied as a test solution to keratinocytes, and after 24 hours the culture supernatants were recovered and the inflammatory cytokine IL-8 was assayed with an ELISA kit.

[8] = test system: IL-6 gene expression in keratinocytes; assay: IL-6 gene expression in keratinocytes (Taqman RT-PCR); format: cell-based, human; conditions: Taqman-PCR normalized to GAPDH
Description: as §1, §3, §4

[9] = test system: HR-1 mice; assay: Confirmation test for inflammation suppressing effect: acetone barrier disruption in a dry environment, HE staining of dorsal skin; format: in vivo; conditions: dry environment (<10% RH), acetone-treated dorsal skin, coating with 1 mM Reactive blue 2, skin collected after 48 hours, control water
Description: After raising HR-1 mice for 48 hours in a dry environment (<10% RH), the dorsal skin was acetone-treated to disrupt its skin barrier function, and then the skin was applied with 1 mM Reactive blue 2. Control animals were applied with water. After an additional 48 hours, the dorsal skins of both animal groups were collected. The skin tissue was fixed with formaldehyde and subjected to hematoxylin-eosin (HE) staining and observed under an optical microscope.

[10] = keratinocytes pretreated with 30-100 μM Reactive blue 2, ATP added 10 minutes later, supernatant after 24 hours, ELISA
[11] = keratinocytes pretreated with 100 μM Reactive blue 2, ATP added 10 minutes later, supernatant after 24 hours, ELISA
[12] = Reactive blue 2 100 μM, cells treated 6 hours
[13] = UVB irradiation 10 minutes after pretreatment with 100 μM Reactive blue 2, supernatant after 24 h, ELISA
[14] = ATP 10 μM-1 mM, 24 hours, ELISA, in proportion to ATP concentration
[15] = ATP 10 μM-1 mM, 24 hours, ELISA, in proportion to concentration
[16] = ATP 30-1000 μM, concentration-dependent
[17] = pretreatment of the cells with suramin, data not shown

Nc1c(S(=O)(=O)O)cc(Nc2ccc(Nc3nc(Cl)nc(Nc4cccc(S(=O)(=O)O)c4)n3)c(S(=O)(=O)O)c2)c2c1C(=O)c1ccccc1C2=O [Reactive blue 2]
ATP-induced increase in IL-6 [1, 10]: significantly inhibited | ATP-induced increase in TNFα [2, 11]: significantly inhibited | ATP-induced increase in IL-8 gene expression [3, 12]: significantly inhibited | ultraviolet irradiation-induced increase in IL-6 [4, 13]: significantly inhibited | ultraviolet irradiation-induced increase in IL-8 [5, 13]: significantly inhibited | ATP-induced increase in IL-1α [6, 11]: significantly inhibited | ATP-induced increase in IL-8 [7, 10]: significantly inhibited | ATP-induced increase in IL-6 gene expression [8, 12]: significantly inhibited | epidermal hyperplasia after barrier disruption (HE staining) [9]: inhibits the epidermal hyperplasia

Nc1ncnc2c1ncn2[C@@H]1O[C@H](COP(=O)(O)OP(=O)(O)OP(=O)(O)O)[C@@H](O)[C@H]1O [ATP, adenosine triphosphate]
IL-6 in culture supernatant after addition of ATP [1, 14]: significant increase | TNFα in culture supernatant after addition of ATP [2, 15]: significant increase | IL-8 expression over non-stimulated cells (controls) [3, 16]: significantly increased | IL-1α in culture supernatant after addition of ATP [6, 15]: significant increase | IL-8 in culture supernatant after addition of ATP [7, 14]: significant increase | IL-6 expression over non-stimulated cells (controls) [8, 16]: significantly increased

Cc1ccc(C(=O)Nc2ccc(S(=O)(=O)O)c3cc(S(=O)(=O)O)cc(S(=O)(=O)O)c23)cc1NC(=O)c1cccc(NC(=O)Nc2cccc(C(=O)Nc3cc(C(=O)Nc4ccc(S(=O)(=O)O)c5cc(S(=O)(=O)O)cc(S(=O)(=O)O)c45)ccc3C)c2)c1 [suramin]
increase in IL-6 release produced by ATP addition [1, 17]: similarly inhibited | increase in TNFα release produced by ATP addition [2, 17]: similarly inhibited | increase in IL-6 release produced by ultraviolet irradiation [4, 17]: similarly inhibited | increase in IL-8 release produced by ultraviolet irradiation [5, 17]: similarly inhibited | increase in IL-1α release produced by ATP addition [6, 17]: similarly inhibited | increase in IL-8 release produced by ATP addition [7, 17]: similarly inhibited
